Reference: PubChem BioAssay AID372 (MTDP, 2006)
Calls of active or inactive are those of the source. No stated cut-off is given here; in the data, active means inhibition above about 50%; inactive means the rest.

Molecular target: Gag-Pol polyprotein (Human immunodeficiency virus type 1 group M subtype B (isolate HXB2)) (UniProt P04585)
Assay: RNase H inhibition, HIV 1 Gag Pol polyprotein, FRET biochemical assay, screening (AID 372)
Details: HIV-1 RT RNase H, FRET RNA/DNA substrate fluorescence

SMILES	IC50
Cc1sc(NC(=O)c2ccc3c(c2)OCO3)c(C(N)=O)c1C	inactive
O=C1C=CC(=O)C(c2cccc(Cl)c2)=C1	2.3 µM
